Assay results published in PMC7284918, “In-Depth Characterization of EpiIntestinal Microtissue as a Model for Intestinal Drug Absorption and Metabolism in Human” (Pharmaceutics, 2020).
Read-outs that look alike come from different tables or passages of the source. Marks after values point to notes of the source that are not given here.

Assays:
[1] = test system: EpiIntestinal microtissues; experiment: Intestinal first-pass availability in EpiIntestinal microtissues; assay type: in vitro ADME, human
Description: (§1) Compounds were diluted in culture media to a final concentration of 10 µM and added to the apical (donor) compartment (total volume: 100 µL for EpiIntestinal and 200 µL for Caco-2). After the incubation at 37 °C for 2, 4, 6, and 24 h, samples (50 µL) were taken from the basal (receiver) compartment (total volume: 5000 µL for EpiIntestinal and 800 µL for Caco-2). After the last timepoint, samples from the donor compartments and the cell lysates were also collected. Compound concentrations in the samples were determined by HPLC-MS/MS (Section 2.3).
(§2) GI first-pass availability of the tested compounds was expressed as fraction (%) of the total amount of a compound added to the donor compartment recovered in the receiver compartment.

[2] = test system: Caco-2 cells; experiment: Intestinal first-pass availability in Caco-2; assay type: in vitro ADME, human; details: Caco-2
Description: as §1, §2

[3] = Intestinal first-pass availability in EpiIntestinal microtissues; assay type: in vitro ADME, human; details: human, 10 µM apical
Description: as §1, §2

[4] = Clinical pharmacokinetic data and calculated Fa × Fg in human; assay type: in vivo; details: calculated from clinical pharmacokinetic data (Section 2.8, Table 2)
Description: A set of 12 marketed drugs are selected for the evaluation of EpiIntestinal microtissues.

[5] = human, cited from earlier work
[6] = test system: EpiIntestinal microtissues; experiment: Metabolite identification in EpiIntestinal microtissues; assay type: in vitro ADME, human; details: 10 µM, peak areas at end of incubation
Description: (§3) Raloxifene or ezetimibe (10 µM) in culture media was added to the apical compartment of EpiIntestinal microtissues or incubated with cryopreserved human intestinal mucosa (HIM). […] Analysis was performed on a LC-MS system containing a Vanquish UPLC (ThermoFisher Scientific, San Jose, CA, USA) coupled to an Orbitrap FusionTribrid high resolution mass spectrometer (ThermoFisher Scientific). Structure elucidation was based on exact mass measurements in combination with the interpretation of fragment spectra.

[7] = test system: human intestinal mucosa (HIM); experiment: Metabolite identification in cryopreserved human intestinal mucosa (HIM); assay type: in vitro ADME; details: 10 µM, peak areas at end of incubation
Description: as §3

[8] = test system: Caco-2 cells; experiment: Bidirectional permeability assay in Caco-2; assay type: in vitro ADME, human; details: Ko-143 3 µM, zosuquidar 5 µM
[9] = test system: EpiIntestinal microtissues; experiment: Bidirectional permeability assay in EpiIntestinal microtissues; assay type: in vitro ADME, human; details: Ko-143 3 µM, zosuquidar 5 µM
Description: Caco-2 cells were obtained from Leibniz Institute DSMZ-German Collection of Microorganisms and Cell Cultures (Braunschweig, Germany) and cultured in DMEM containing 10% FCS, 1% NEAA, 2 mM Glutamin, 100 U/mL Penicillin and 100 µg/mL Streptomycin. […] EpiIntestinal microtissues were obtained from MatTek (Bratislav, Slovakia) and cultured according to the manufacturer’s instruction (24-well format for bidirectional permeability assays and GI firstpass availability assays and 96-well format for screening of DME activities).
Bidirectional permeability assays were performed as described previously. […] In indicated experiments, inhibitors were added to both compartments. Cells were incubated with the compounds for up to 2 h. Samples from the opposite compartment were taken at different timepoints. […] Prior to bioanalysis samples were spiked with internal standard solution and diluted with acetonitrile (ACN) for protein precipitation. Measurement was operated in multiple reaction monitoring (MRM) mode. Quantification was performed using external calibration. Apparent permeability coefficients in the apical to basal direction (Papp,AB) and in the basal to apical direction (Papp,BA) and efflux were calculated as follows Papp,AB=QAB/(C0×s×t) Papp,BA=QBA/(C0×s×t) Efflux=Papp,BA/Papp,AB where Q is the amount of compound recovered in the receiver compartment after the incubation time t, C0 the initial compound concentration given to the donor compartment, and s the surface area of the Transwell inserts. Efflux ratio is calculated as the quotient of Papp,BA to Papp,AB. […] In addition, Transepithelial electrical resistance (TEER) values are measured for each plate before the permeability assay and total recovery in donor and receiver compartments was determined for each compound. All these parameters (efflux of apafant, Papp values of the low permeable compound, TEER values, and total recovery) are used to ensure the quality of the assays.

[10] = Intestinal first-pass availability in Caco-2; assay type: in vitro ADME, human; details: human, Caco-2, Caco-2, 10 µM apical, read-out: Recovery in basal/receiver compartment after 24 h
Description: as §1, §2

[11] = in vitro; details: human, plasma
Description: Blood CLb can be converted from plasma clearance CLp with the blood-to-plasma ratio RB: CLb=CLp/RB

[12] = test system: CYP3A4; details: Caco-2
Description: (§4) For measurements of DME activities in EpiIntestinal microtissues and Caco-2 cells, both were cultured in 96-well Transwell inserts. Drugs (Table 1) were dissolved in the respective solvent at 200x concentration and diluted in a pre-warmed transport buffer. Diluted substrate solution was applied to the apical (100 µL) and basal (250 µL) compartment of the Transwell and incubated at 37 °C and 5% CO2 and 60 rpm continuous shaking. DME activities were determined by monitoring metabolite formation in basal compartment over time (0, 0.5, 1, 2, 3 and 4 h) with LC-MS/MS. […] Chromatographic separation of samples was performed on YMC Triart C18 (1.9 µm, 30 × 2 mm; YMC Europe, Dinslaken, Germany) LC analytical column. Quantification of all metabolites listed in Table 1 was achieved by the use of calibration curves for the individual metabolites with appropriate concentration ranges.
(§5) A total of 10 µL of the incubation sample were diluted with 90 µL of water containing 10–20% ACN or methanol, 0.1% formic acid and the respective internal standard. To analyze the intracellular metabolite concentration, cells on Transwell inserts were washed twice with ice-cold PBS and stored at −80 °C for 20 min. Afterwards, 150 µL 50% ACN diluted with transport buffer was added to the cells and incubated at room temperature for 30 min. Cell lysate was transferred to a fresh 96-well plate and centrifuged at 4 °C, 4000 rpm for 10 min. Subsequently, 10 µL of the supernatant were diluted with 90 µl water containing 10–20% ACN or methanol, 0.1% formic acid and the respective internal standard. A total of 2 µL sample was injected into the LC-MS/MS system operated with an electrospray ionization source.

[13] = target: T1, CYP1A2 (Homo sapiens, UniProt P05177)
T1 sequence (P05177 1-516): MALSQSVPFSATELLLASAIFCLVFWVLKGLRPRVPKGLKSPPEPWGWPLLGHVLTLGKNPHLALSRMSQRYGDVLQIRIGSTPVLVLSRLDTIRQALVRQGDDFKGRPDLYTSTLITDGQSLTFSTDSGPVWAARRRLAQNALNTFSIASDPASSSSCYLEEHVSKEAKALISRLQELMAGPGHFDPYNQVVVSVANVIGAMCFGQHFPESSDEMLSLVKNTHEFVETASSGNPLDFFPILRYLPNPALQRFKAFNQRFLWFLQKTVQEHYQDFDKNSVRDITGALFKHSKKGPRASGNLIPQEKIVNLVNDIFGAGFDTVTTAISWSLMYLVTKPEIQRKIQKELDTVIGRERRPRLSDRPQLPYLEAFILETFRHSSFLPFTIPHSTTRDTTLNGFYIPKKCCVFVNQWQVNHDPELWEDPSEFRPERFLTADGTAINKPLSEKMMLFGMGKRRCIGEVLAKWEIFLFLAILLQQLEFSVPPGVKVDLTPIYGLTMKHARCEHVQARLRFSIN
Description: as §4, §5

[14] = target: T1, CYP1A2; remark: listed apart in the source
Description: as §4
A total of 10 µL of the incubation sample were diluted with 90 µL of water containing 10–20% ACN or methanol, 0.1% formic acid and the respective internal standard. To analyze the intracellular metabolite concentration, cells on Transwell inserts were washed twice with ice-cold PBS and stored at −80 °C for 20 min. Afterwards, 150 µL 50% ACN diluted with transport buffer was added to the cells and incubated at room temperature for 30 min. […]

[15] = EpiIntestinal microtissues, GI firstpass availability, read-out: Recovery in Basal Comp. @ 24h (%)
[16] = clinical, ref Prescription information at fda.gov

SMILES: COc1ccc(CCN2CCC(Nc3nc4ccccc4n3Cc3ccc(F)cc3)CC2)cc1 [Astemizole]
- Availability in the receiver compartment on co-incubation with CYP2J2 inhibitor ([1]; 10 µM apical, Ebastein (50 µM)): increased
- Availability in the receiver compartment on co-incubation with CYP2J2 inhibitor ([2]; 10 µM apical, Ebastein (50 µM)): increased

SMILES: CC(C)NCC(O)COc1ccc(CC(N)=O)cc1 (centres unmarked) [Atenolol]
- recovery at 24 h, 10 µM [3, 15]: 86%
- Fa × Fg in Human (%) [4]: 50%

SMILES: CC(C)c1c(C(=O)Nc2ccccc2)c(-c2ccccc2)c(-c2ccc(F)cc2)n1CC[C@@H](O)C[C@@H](O)CC(=O)O [Atorvastatin]
- recovery at 24 h, 10 µM [3, 15]: 43%

SMILES: O=C1CC2(CCCC2)CC(=O)N1CCCCN1CCN(c2ncccn2)CC1 [Buspirone]
- recovery at 24 h, 10 µM [3, 15]: 60%
- Fa × Fg in Human (%) [4]: 70%
- CLp (plasma clearance) ([5]; clinical): 28.3 [8] mL/min/kg
- fe (fraction of renal excretion) ([5]; clinical): 0.45 [19]

SMILES: O=C1[C@H](CC[C@H](O)c2ccc(F)cc2)[C@@H](c2ccc(O)cc2)N1c1ccc(F)cc1 [Ezetimibe]
- Parent (% of parent drug at T0) [6]: 8.4 % of parent drug at T0
- Parent (% of parent drug at T0) [7]: 40.3 % of parent drug at T0

SMILES: CCOC(=O)C1=C(C)NC(C)=C(C(=O)OC)C1c1cccc(Cl)c1Cl (centres unmarked) [Felodipine]
- recovery at 24 h, 10 µM [3, 15]: 47%

SMILES: CC(C)(C)NC(=O)[C@@H]1CN(Cc2cccnc2)CCN1C[C@@H](O)C[C@@H](Cc1ccccc1)C(=O)N[C@H]1c2ccccc2C[C@H]1O [Indinavir]
- recovery at 24 h, 10 µM [3, 15]: 53%
- Fa × Fg in Human (%) [4]: 100%
- F (total oral availability) ([5]; clinical): 0.6 [8]
- fe (fraction of renal excretion) ([5]; clinical): 0.085 [16]

SMILES: CCc1c2c(nc3ccc(OC(=O)N4CCC(N5CCCCC5)CC4)cc13)-c1cc3c(c(=O)n1C2)COC(=O)[C@]3(O)CC [Irinotecan]
- recovery at 24 h, 10 µM [3, 15]: 62%

SMILES: COc1ccc2c3c([nH]c2c1)[C@H](CC(C)C)N1C(=O)[C@H](CCC(=O)OC(C)(C)C)NC(=O)[C@@H]1C3 [Ko-143]
- Effect of inhibitor on the efflux of rosuvastatin [8]: strongly reduced
- Effect of inhibitor on the efflux of rosuvastatin [9]: strongly reduced

SMILES: Cc1ncc2n1-c1ccc(Cl)cc1C(c1ccccc1F)=NC2 [Midazolam]
- 1-hydroxymidazolam (CYP3A4-selective metabolite) detected ([1]; midazolam 10 µM apical, no inhibitor): substantial amount
- recovery at 24 h, 10 µM ([3]; with CYP3A4 inhibitor CYP3cide (1 µM), read-out: Recovery in basal/receiver compartment after 24 h): 75.9%
- recovery at 24 h, 10 µM [3, 15]: 47%
- recovery at 24 h, 10 µM ([3]; EpiIntestinal microtissues, no inhibitor, read-out: Recovery in basal/receiver compartment after 24 h): 46.7%
- 1-hydroxymidazolam (CYP3A4-selective metabolite) detected ([2]; midazolam 10 µM apical): negligible amount
- recovery at 24 h, 10 µM ([10]; no inhibitor): 81%
- recovery at 24 h, 10 µM ([10]; with CYP3A4 inhibitor CYP3cide (1 µM)): 87.9%
- Fa × Fg in Human (%) [4]: 59%
- blood plasma ratio [11]: 0.64
- Intracellular Metabolite (% of Total) ([12]; CYP3A4/Midazolam, metabolite 1-OH-Midazolam): BLQ
- Enzyme Activities Mean/SD ([12]; CYP3A4/Midazolam, rate of 1-OH-Midazolam formation in supernatant): BLQ
- F (total oral availability) ([5]; clinical): 0.4 [8]
- fe (fraction of renal excretion) ([5]; clinical): 0 [16]

SMILES: COC(=O)C1=C(C)NC(C)=C(C(=O)OC)C1c1ccccc1[N+](=O)[O-] [Nifedipine]
- fe (fraction of renal excretion) ([5]; in vivo): 0 [16]

SMILES: CCN(CC)CC#CCOC(=O)C(O)(c1ccccc1)C1CCCCC1 (centres unmarked) [Oxybutynin]
- Fa × Fg in Human (%) [4]: 9%
- F (total oral availability) ([5]; clinical): 0.06 [8]
- fe (fraction of renal excretion) [5, 16]: 0 *
- CLp (plasma clearance) ([5]; in vivo): 5.1 [15] mL/min/kg

SMILES: CCOc1ccc(NC(C)=O)cc1 [Phenacetin]
- Intracellular Metabolite (% of Total) [13]: BLQ
- Enzyme Activities Mean/SD ([13]; human): 123.1/4.8 pmol/h/cm^2
- Intracellular Metabolite (% of Total) [14]: BLQ
- Enzyme Activities Mean/SD ([14]; human): 17.4/3.0 pmol/h/cm^2

SMILES: O=C(c1ccc(OCCN2CCCCC2)cc1)c1c(-c2ccc(O)cc2)sc2cc(O)ccc12 [Raloxifene]
- Parent (% of parent drug at T0) [6]: 2.4 % of parent drug at T0
- Parent (% of parent drug at T0) [7]: 33.2 % of parent drug at T0

SMILES: CC(C)(C)NC(=O)[C@@H]1C[C@@H]2CCCC[C@@H]2CN1C[C@@H](O)[C@H](Cc1ccccc1)NC(=O)[C@H](CC(N)=O)NC(=O)c1ccc2ccccc2n1 [Saquinavir]
- recovery at 24 h, 10 µM [3, 15]: 18%
- Fa × Fg in Human (%) [4]: 25%
- F (total oral availability) ([5]; clinical): 0.04 [8]
- fe (fraction of renal excretion) [5, 16]: 0.01 *

SMILES: C[C@]12CC[C@H]3[C@@H](CCC4=CC(=O)CC[C@@]43C)[C@@H]1CC[C@@H]2O [Testosterone]
- Intracellular Metabolite (% of Total) ([12]; CYP3A4/Testosterone, metabolite 6β-OH-Testosterone): BLQ

SMILES: O[C@@H](COc1cccc2ncccc12)CN1CCN([C@@H]2c3ccccc3[C@@H]3[C@H](c4ccccc42)C3(F)F)CC1 [zosuquidar]
- Effect of inhibitor on the efflux of rosuvastatin [8]: minor effect
- Effect of inhibitor on the efflux of rosuvastatin [9]: minor effect
